Results: the CheMixHub viscosity set

Assay: xn = mol fraction of the nth substance listed
Conditions: 101 kPa

COCCOCCOC + CC(C)(C)O
viscosity [mPa·s]
Conditions	x1 = 0.1032	x1 = 0.2054	x1 = 0.3014	x1 = 0.4031	x1 = 0.5025	x1 = 0.6046	x1 = 0.7072	x1 = 0.8058	x1 = 0.8973
298.15 K	2.377	1.768	1.453	1.259	1.146	1.073	1.032	1.008	0.995
303.15 K	1.954	1.523	1.274	1.123	1.033	0.974	0.943	0.921	0.915
308.15 K	1.625	1.319	1.13	1.009	0.937	0.888	0.864	0.852	0.844

Oc1ccccc1 + Clc1ccccc1
293.15 K
Conditions	viscosity [mPa·s]
x1 = 0.0584	0.825
x1 = 0.115	0.888
x1 = 0.2493	1.122
x1 = 0.3435	1.274
x1 = 0.4323	1.673
x1 = 0.5436	2.218
x1 = 0.6243	2.748
x1 = 0.7492	4.07
x1 = 0.84	5.555

C1N2CN3CN1CN(C2)C3 + O
Conditions	viscosity [mPa·s]
293.15 K, x1 = 0.003601	1.028
293.15 K, x1 = 0.007176	1.072
293.15 K, x1 = 0.01043	1.127
293.15 K, x1 = 0.01396	1.205
293.15 K, x1 = 0.01775	1.308
297.35 K, x1 = 0.022	1.515
297.35 K, x1 = 0.031	1.736
297.35 K, x1 = 0.041	2.087
297.55 K, x1 = 0.052	2.537
298.15 K, x1 = 0.003601	0.928
298.15 K, x1 = 0.007176	0.979
298.15 K, x1 = 0.01043	1.033
298.15 K, x1 = 0.01396	1.101
298.15 K, x1 = 0.01775	1.185
300.15 K, x1 = 0.003601	0.83
300.15 K, x1 = 0.007176	0.874
300.15 K, x1 = 0.01043	0.922
300.15 K, x1 = 0.01396	0.982
300.15 K, x1 = 0.01775	1.058
302.15 K, x1 = 0.022	1.389
302.35 K, x1 = 0.031	1.627
302.35 K, x1 = 0.052	2.222
302.75 K, x1 = 0.041	1.832
305.15 K, x1 = 0.003601	0.74
305.15 K, x1 = 0.007176	0.777
305.15 K, x1 = 0.01043	0.822
305.15 K, x1 = 0.01396	0.884
305.15 K, x1 = 0.01775	0.967
306.95 K, x1 = 0.031	1.483
307.35 K, x1 = 0.022	1.321
307.35 K, x1 = 0.041	1.689
307.35 K, x1 = 0.052	2.056
311.95 K, x1 = 0.022	1.251
312.15 K, x1 = 0.031	1.375
312.15 K, x1 = 0.041	1.595
312.15 K, x1 = 0.052	1.864

CO/N=C(\C(=O)N[C@@H]1C(=O)N2C(C(=O)[O-])=C(CSc3nc(C)c(CC(=O)[O-])s3)CS[C@H]12)c1csc(N)n1.[Na+].[Na+] + O
Conditions	viscosity [mPa·s]
293.15 K, x1 = 0.002695	1.285
